Results: patent publication US6914045B2, “Glycopeptide antibiotics” (Wyeth Holdings Corporation, priority 2001, dated 2005)
≈ marks a conversion by molar mass, not a printed value.

Legend:
Assay in all cases: in vitro antibacterial evaluation, MIC by broth dilution
Assay type in all cases: cell-based
Enterococcus sp. = settings: broth dilution, 18 hours at 35° C.
Summary of the method: (§1)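 Broth dilution per NCCLS M7-A2 in Mueller-Hinton II medium, inoculum 5×10^5 CFU/mL, antibiotic range 64-0.06 μg/mL. MIC taken as lowest concentration inhibiting growth; Gram-positive panel includes recent clinical isolates resistant to methicillin, penicillin and/or vancomycin.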

Streptococcus sp. = settings: broth dilution, 18 hours at 35° C.
Summary of the method: as §1

Escherichia coli = settings: 18 hours at 35° C.
Summary of the method: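 MIC = lowest antibiotic concentration preventing visible growth; inoculum 5×10^5 CFU/mL; drug range 64-0.06 μg/mL; Muller-Hinton II […]; NCCLS M7-A2 guidance.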

Staphylococcus sp. = settings: broth dilution, 18 hours at 35° C.
Summary of the method: as §1

MIC Enterococcus avium (GC 4558) (Enterococcus sp.; Enterococcus avium (GC 4558)): 64 µg/mL (≈ 46.2 µM)
MIC Enterococcus faecalis (ATCC 29212) (Enterococcus sp.; Enterococcus faecalis (ATCC 29212)): 64 µg/mL (≈ 46.2 µM)
MIC Enterococcus faecalis (GC 4553) (Enterococcus sp.; Enterococcus faecalis (GC 4553)): >64 µg/mL
MIC Enterococcus faecalis (GC 4554) (Enterococcus sp.; Enterococcus faecalis (GC 4554)): >64 µg/mL
MIC Enterococcus faecium (GC 2243) (Enterococcus sp.; Enterococcus faecium (GC 2243)): >64 µg/mL
MIC Enterococcus faecium (GC 4556) (Enterococcus sp.; Enterococcus faecium (GC 4556)): 64 µg/mL (≈ 46.2 µM)
MIC Enterococcus faecium (GC 4557) (Enterococcus sp.; Enterococcus faecium (GC 4557)): 8 µg/mL (≈ 5.77 µM)
MIC Enterococcus faecalis (ATCC 29212) (Enterococcus sp.; strain ATCC 29212): 64 µg/mL (≈ 46.2 µM)
MIC Enterococcus faecalis (GC 2242) (Enterococcus sp.; strain GC 2242): 64 µg/mL (≈ 46.2 µM)
MIC Enterococcus faecium (GC 2243) (Enterococcus sp.; strain GC 2243): >64 µg/mL
MIC Enterococcus faecalis (GC 4552) (Enterococcus sp.; strain GC 4552): >64 µg/mL
MIC Enterococcus faecalis (GC 4553) (Enterococcus sp.; strain GC 4553): >64 µg/mL
MIC Enterococcus faecalis (GC 4554) (Enterococcus sp.; strain GC 4554): >64 µg/mL
MIC Enterococcus faecium (GC 4556) (Enterococcus sp.; strain GC 4556): 64 µg/mL (≈ 46.2 µM)
MIC Enterococcus faecium (GC 4557) (Enterococcus sp.; strain GC 4557): 8 µg/mL (≈ 5.77 µM)
MIC Enterococcus avium (GC 4558) (Enterococcus sp.; strain GC 4558): 64 µg/mL (≈ 46.2 µM)
MIC Streptococcus agalactiae (GC 4564) (Streptococcus sp.; strain GC 4564): 4 µg/mL (≈ 2.89 µM)
MIC Streptococcus pyogenes (ID-3187) (Streptococcus sp.; strain ID-3187): 4 µg/mL (≈ 2.89 µM)
MIC Escherichia coli (ATCC 25922) (Escherichia coli; Escherichia coli (ATCC 25922)): >64 µg/mL
MIC Escherichia coli (GC 4559) (Escherichia coli; Escherichia coli (GC 4559)): >64 µg/mL
MIC Escherichia coli (GC 4560) (Escherichia coli; Escherichia coli (GC 4560)): 4 µg/mL (≈ 2.89 µM)
MIC Coagulase Negative Staphylococcus (GC 4547) (Staphylococcus sp.): 8 µg/mL (≈ 5.77 µM)
MIC Coagulase Negative Staphylococcus (GC 4548) (Staphylococcus sp.): 8 µg/mL (≈ 5.77 µM)
MIC Coagulase Negative Staphylococcus (GC 4549) (Staphylococcus sp.): 4 µg/mL (≈ 2.89 µM)
MIC Coagulase Negative Staphylococcus (GC 4551) (Staphylococcus sp.): 8 µg/mL (≈ 5.77 µM)
MIC Staphylococcus aureus (ATCC 29213) (Staphylococcus sp.): 16 µg/mL (≈ 11.5 µM)
MIC Staphylococcus aureus (GC 1131) (Staphylococcus sp.): 32 µg/mL (≈ 23.1 µM)
MIC Staphylococcus aureus (GC 4541) (Staphylococcus sp.): 16 µg/mL (≈ 11.5 µM)
MIC Staphylococcus aureus (GC 4542) (Staphylococcus sp.): 16 µg/mL (≈ 11.5 µM)
MIC Staphylococcus aureus (GC 4544) (Staphylococcus sp.): 8 µg/mL (≈ 5.77 µM)
MIC Staphylococcus aureus (GC 4545) (Staphylococcus sp.): 16 µg/mL (≈ 11.5 µM)
MIC Staphylococcus aureus-SMITH (GC 4543) (Staphylococcus sp.): 8 µg/mL (≈ 5.77 µM)
MIC Staphylococcus aureus (ATCC 29213) (Staphylococcus sp.; strain ATCC 29213): 16 µg/mL (≈ 11.5 µM)
MIC Staphylococcus aureus (GC 1131) (Staphylococcus sp.; strain GC 1131): 32 µg/mL (≈ 23.1 µM)
MIC Staphylococcus aureus (GC 4541) (Staphylococcus sp.; strain GC 4541): 16 µg/mL (≈ 11.5 µM)
MIC Staphylococcus aureus (GC 4542) (Staphylococcus sp.; strain GC 4542): 16 µg/mL (≈ 11.5 µM)
MIC Staphylococcus aureus (GC 4544) (Staphylococcus sp.; strain GC 4544): 8 µg/mL (≈ 5.77 µM)
MIC Staphylococcus aureus (GC 4545) (Staphylococcus sp.; strain GC 4545): 16 µg/mL (≈ 11.5 µM)
MIC Coagulase Negative Staphylococcus (GC 4547) (Staphylococcus sp.; strain GC 4547): 8 µg/mL (≈ 5.77 µM)
MIC Coagulase Negative Staphylococcus (GC 4548) (Staphylococcus sp.; strain GC 4548): 8 µg/mL (≈ 5.77 µM)
MIC Coagulase Negative Staphylococcus (GC 4549) (Staphylococcus sp.; strain GC 4549): 4 µg/mL (≈ 2.89 µM)
MIC Coagulase Negative Staphylococcus (GC 4551) (Staphylococcus sp.; strain GC 4551): 8 µg/mL (≈ 5.77 µM)
MIC Staphylococcus aureus-SMITH (GC 4543) (Staphylococcus sp.; strain SMITH GC 4543): 8 µg/mL (≈ 5.77 µM)
Structure (SMILES): CC(C)CC(=O)OC1C(OC2C(CO)OC(Oc3ccc(CC4NC(=O)C(C(C)c5cccs5)NC(=O)CNC(=O)C(CO)NC(=O)C(C(O)C5CNC(=N)N5C5OC(CO)C(O)C(O)C5O)NC(=O)C(C(O)C5CNC(=N)N5)NC4=O)cc3)C(O)C2O)OC(CO)C(O)C1O (stereo not drawn) [Example 265a, Cyclo[3-(2-thienyl)-2-aminobutanoyl-O-[4-O-[2-O-(3-methylbutanoyl)hexopyranosyl]hexopyranosyl]tyrosyl-3-(2-iminoimidazolidin-4-yl)seryl-3-(3-hexopyranosyl-2-iminoimidazolidin-4-yl)serylserylglycyl]]
MIC Staphylococcus haemolyticus (GC 4546) (Staphylococcus sp.): 8 µg/mL (≈ 5.77 µM)
MIC Staphylococcus haemolyticus (GC 4546) (Staphylococcus sp.; strain GC 4546): 8 µg/mL (≈ 5.77 µM)
